Test [1] addresses T1, COX-1 (Homo sapiens, UniProt P23219). Kind of test: Human whole blood assay, COX-1 (clotting-induced TxB2 production). To be noted: clotting-induced TxB2, 1 hour at 37° C., read-out: COX-1 (IC50 μM) HWB. The test is classed as cell-based. Also noted: endogenous in cells; host or cells: platelets in fresh human whole blood without anticoagulant. How it is done: Human whole blood provides a protein and cell-rich milieu appropriate for the study of biochemical efficacy of anti-inflammatory compounds such as selective COX-2 inhibitors. […] This is consistent with the observation that COX-2 inhibitors have no effect on PGE2 production in normal blood. These inhibitors are active only after incubation of human whole blood with LPS, which induces COX-2. This assay can be used to evaluate the inhibitory effect of selective COX-2 inhibitors on PGE2 production. As well, platelets in whole blood contain a large amount of the COX-1 enzyme. Immediately following blood clotting, platelets are activated through a thrombin-mediated mechanism. This reaction results in the production of thromboxane B2 (TxB2) via activation of COX-1. Thus, the effect of test compounds on TxB2 levels following blood clotting can be examined and used as an index for COX-1 activity. Therefore, the degree of selectivity by the test compound can be determined by measuring the levels of PGE2 after LPS induction (COX-2) and TxB2 following blood clotting (COX-1) in the same assay.
B. COX-1 (Clotting-induced TxB2 production)
Fresh blood is collected into vacutainers containing no anticoagulants. Aliquots of 500 μL are immediately transferred to siliconized microcentrifuge tubes preloaded with 2 μL of either DMSO or a test compound at final concentrations varying from 10 nM to 30 μM. The tubes are vortexed and incubated at 37° C. for 1 hour to allow blood to clot. At the end of incubation, serum is obtained by centrifugation (12,000×g for 5 min.). A 100 μL aliquot of serum is mixed with 400 μL of methanol for protein precipitation. The supernatant is obtained and is assayed for TxB2 using a enzyme immunoassay kit (Cayman, #519031) according to the manufacturer's instruction.

For test [2], the target named is T1, COX-1. Kind of test: Assay of COX-1 activity from U937 cell microsomes. Type of test: biochemical. Also noted: endogenous in cells; host or cells: U937 cells, 100,000 x g microsomal pellet. To be noted: PGE2, read-out: COX-1 (IC50 μM) U-937. On the procedure:
Assay of COX-1 Activity from U937 cell microsomes
U937 cells are pelleted by centrifugation at 500×g for 5 min and washed once with phosphate-buffered saline and repelleted. Cells are resuspended in homogenization buffer consisting of 0.1M Tris-HCl, pH 7.4, 10 mM EDTA, 2 μg/ml leupeptin, 2 μg/ml soybean trypsin inhibitor, 2 μg/ml aprotinin and 1 mM phenyl methyl sulfonyl fluoride. The cell suspension is sonicated 4 times for 10 sec and is centrifuged at 10,000×g for 10 min at 4° C. The supernatant is centrifuged at 100,000×g for 1 hr at 4° C. The 100,000×g microsomal pellet is resuspended in 0.1M Tris-HCl, pH 7.4, 10 mM EDTA to approximately 7 mg protein/ml and stored at −80° C.
Microsomal preparations are thawed immediately prior to use, subjected to a brief sonication, and then diluted to a protein concentration of 125 μg/ml in 0.1 M Tris-HCl buffer, pH 7.4 containing 10 mM EDTA, 0.5 mM phenol, 1 mM reduced glutathione and 1 μM hematin. Assays are performed in duplicate in a final volume of 250 μl. Initially, 5 μl of DMSO vehicle or drug in DMSO are added to 20 μl of 0.1M Tris-HCl buffer, pH 7.4 containing 10 mM EDTA in wells of a 96-deepwell polypropylene titre plate. 200 μl of the microsomal preparation are then added and pre-incubated for 15 min at room temperature before addition of 25 μl of […] arachidonic acid in 0.1M Tris-HCl and 10 mM EDTA, pH 7.4. Samples are incubated for 40 min at room temperature and the reaction is stopped by the addition of 25 μl of 1N HCl. Samples are neutralized with 25 μl of 1N NaOH prior to quantitation of PGE2 content by radioimmunoassay (Dupont-NEN or Amersham assay kits). Cyclooxygenase activity is defined as the difference between PGE2 levels in samples incubated in the presence of arachidonic acid and ethanol vehicle.
Compounds of the present invention are inhibitors of cyclooxygenase-2 and are thereby useful in the treatment of cyclooxygenase-2 mediated diseases as enumerated above. The activities of the compounds against cyclooxygenase may be seen in the representative results shown below. In the assay, inhibition is determined by measuring the amount of prostaglandin E2 (PGE2) synthesized in the presence of arachidonic acid, cyclooxygenase-1 or cyclooxygenase-2 and a putative inhibitor. The IC50 values represent the concentration of putative inhibitor required to return PGE2 synthesis to 50% of that obtained as compared to the uninhibited control.

The structures appear in SMILES notation.

T1 sequence (P23219 24-599): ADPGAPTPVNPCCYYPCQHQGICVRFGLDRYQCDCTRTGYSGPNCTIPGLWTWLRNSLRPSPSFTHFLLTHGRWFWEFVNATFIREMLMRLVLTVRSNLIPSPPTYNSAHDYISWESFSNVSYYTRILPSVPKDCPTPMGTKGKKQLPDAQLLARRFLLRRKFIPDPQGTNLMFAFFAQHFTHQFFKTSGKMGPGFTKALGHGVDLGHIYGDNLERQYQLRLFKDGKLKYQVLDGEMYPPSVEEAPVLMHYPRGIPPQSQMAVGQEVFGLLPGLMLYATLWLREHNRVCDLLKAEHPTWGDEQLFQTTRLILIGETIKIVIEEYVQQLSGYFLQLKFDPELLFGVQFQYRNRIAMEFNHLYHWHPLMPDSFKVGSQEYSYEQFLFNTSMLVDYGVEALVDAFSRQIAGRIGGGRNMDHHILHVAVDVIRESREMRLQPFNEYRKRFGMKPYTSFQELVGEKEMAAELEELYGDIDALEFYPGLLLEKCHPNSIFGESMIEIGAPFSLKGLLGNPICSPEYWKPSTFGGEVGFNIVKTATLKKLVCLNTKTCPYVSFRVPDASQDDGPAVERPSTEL

For the molecule `Cc1cc(-c2ccc(S(C)(=O)=O)cc2)c(-c2ccccc2)c(=O)o1` [Example 4, 6-Methyl-4-(4-methylsulfonyl)phenyl-3-phenyl-pyran-2-one], the 50% inhibitory concentration (IC50) came to 6.3 µM at COX-1 [1] and 1 µM on COX-1 [2].
Turning to `Cc1cc(-c2ccc(S(C)(=O)=O)cc2)c(SC(C)C)c(=O)o1` [Example 10, 3-Isopropylthio-6-methyl-4-(4-(methylsulfonyl)phenyl)-pyran-2-one], on COX-1 [2], the IC50 is over 10 µM.
Consider `CC(C)Sc1c(-c2ccc(S(C)(=O)=O)cc2)cc(C(F)(F)F)oc1=O` [Example 12, 3-Isopropylthio-4-(4-(methylsulfonyl)phenyl)-6-trifluoromethyl-pyran-2-one], for which the half-maximal inhibitory concentration (IC50) on COX-1 [2] was over 33 µM.
On the same count and under the same terms, the figure for `CS(=O)(=O)c1ccc(-c2cc(C(F)(F)F)oc(=O)c2Sc2ccccc2)cc1` [Example 11, 4-(4-(Methylsulfonyl)phenyl)-3-phenylthio-6-trifluoromethyl-pyran-2-one] is 14 µM.
With `Cc1cc(-c2ccc(S(C)(=O)=O)cc2)c(-c2cccc(F)c2)c(=O)o1` [Example 3, 3-(3-Fluorophenyl)-6-methyl-4-(4-methylsulfonyl)phenyl-pyran-2-one], the values for the IC50 on COX-1 [1] and at COX-1 [2] were 6.9 µM and 3 to 10 µM, respectively.
As to `CS(=O)(=O)c1ccc(-c2cc(C(F)F)oc(=O)c2-c2ccccc2)cc1` [Example 5, 6-Difluoromethyl-4-(4-methylsulfonyl)phenyl-3-phenyl-pyran-2-one], the IC50 at COX-1 [2] is 0.3 to 1 µM.
`Cc1cc(-c2ccc(S(C)(=O)=O)cc2)c(Oc2ccccc2)c(=O)o1` [Example 8, 6-Methyl-4-(4-(methylsulfonyl)phenyl)-3-phenoxy-pyran-2-one]: the IC50 is 13 µM on COX-1 [1] and 1 to 3 µM at COX-1 [2].
Take `CS(=O)(=O)c1ccc(-c2ccoc(=O)c2-c2ccccc2)cc1` [Example 1, 4-(4-Methylsulfonyl)phenyl-3-phenyl-pyran-2-one]: the values for the half-inhibitory concentration (IC50) at COX-1 [1] and on COX-1 [2] were 13 µM and over 10 µM, respectively.
`Cc1cc(-c2ccc(S(C)(=O)=O)cc2)c(-c2cccnc2)c(=O)o1` [Example 9]: the IC50 on COX-1 [1] is 16 µM; at COX-1 [2] it was 0.3 to 1 µM.
The corresponding values for `Cc1cc(-c2ccc(S(C)(=O)=O)cc2)c(-c2ccc(F)cc2)c(=O)o1` [Example 2, 3-(4-Fluorophenyl)-6-methyl-4-(4-methylsulfonyl)phenyl-pyran-2-one] are 2 µM and 0.3 to 1 µM.
On the same counts, the results for `Cc1cc(-c2ccc(S(C)(=O)=O)cc2)c(Sc2ccccc2)c(=O)o1` [Example 7, 6-Methyl-4-(4-(methylsulfonyl)phenyl)-3-phenylthio-pyran-2-one] are 16 µM and 1 to 3 µM.
`Cc1cc(-c2ccc(S(C)(=O)=O)cc2)c(CCC(C)(C)O)c(=O)o1` [Example 14, 3-(3-Hydroxy-3-methylbutyl)-6-methyl-4-(4-methylsulfonyl)phenyl-pyran-2-one]: at COX-1 [2], the IC50 is over 10 µM.
For the molecule `CS(=O)(=O)c1ccc(-c2cc(CF)oc(=O)c2-c2ccccc2)cc1` [Example 6, 6-Fluoromethyl-4-(4-methylsulfonyl)phenyl-3-phenyl-pyran-2-one], on COX-1 [2], the IC50 is about 1 µM.

Source of the values: patent US6465509B2, “Pyrones as inhibitors of cyclooxygenase-2” (Merck Frosst Canada & Co., priority 2000, dated 2002).
